Results on 1 molecule are retold here after patent publication US20220265713A1, “SPHINGOLIPIDS FOR GENERATING REGULATORY CD4+ T CELLS” (Deutsches Krebsforschungszentrum, priority 2019, published 2022).

Assay [1] has as its system naïve CD4+ T cells. In words: Treg cell in vitro differentiation of naïve CD4+ T cells (flow cytometry of Foxp3). The format is cell-based, mouse. The conditions noted are these: sphinganine 5 μM, three days; for Foxp3 protein expression: anti-CD3, anti-CD28, TGFβ 5 ng/ml, IL-2 10 ng/ml, vs vehicle DMSO, FIG. 4A/4C. The protocol:
(§1) FIG. 4. Sphinganine promoted the Treg cell in vitro generation and suppressed the inflammatory Th17 cell formation. The YFP-negative CD4^+non-Treg naïve T cells were FACS-sorted (1 ×10^5 cells in 250 μl complete medium) from the Foxp3Cre-YFP mice. The naive T cells were activated with the anti-CD3 and anti-CD28 for three days, in the presence or absence of cytokine TGFβ (5 ng/ml) and IL-2 (10 ng/ml) for Treg cells and TGFβ (5 ng/ml), IL-6 (20 ng/ml) and anti-IFNy (10 μg/ml) for Th17 cells. A: flow cytometry analysis of Foxp3 protein expression after induction of Treg cell formation with sphinganine (5 μM) in the presence of cytokine TGFβ (5 ng/ml) or vehicle control DMSO (no TGFβ). B: Flow cytometry analysis of IL-17 protein expression after induction of Th17 cell formation with TGFβ (5 ng/ml), IL-6 (20 ng/ml) and anti-IFNy (10 μg/ml) in the presence or absence of sphinganine (5 μM). C: Flow cytometry analysis of Foxp3 protein expression after induction of Treg cell formation in the presence of TGFβ (5 ng/ml) and L- serine (5 μM), 3-KDS (5 μM), shinganine (5 μM), dihydroceramide (50 nM), ceramide (50 nM), sphingosine (1 μM), sphingosine-1-phosphate (1 μM), shinganine-1-phosphate (1 μM), or vehicle control DMSO (TGFβ only). D: Structures of sphingolipids, as indicated, and sphingolipid biosynthetic pathway are depicted. The numbers in each FACS plot show the percentages of the indicated cell population within the total population of cells shown in the FACS plot.
Mouse primary T cell culture. Complete medium was used for cell culture and was prepared by supplementing RPMI 1640 plain medium with 10% fetal calf serum, penicillin/streptomycin antibiotics and non-essential amino acids. For Treg and Th17 cell in vitro differentiation, naïve splenic T cells were purified from the Sptic2^+/+Foxp3Cre-YFP wild type mice using the flow cytometry sorter. […]
(§2) Flow Cytometry. […] Samples were run on the LSR II and analyzed using the Flowjo software (FlowJo, LLC, BD). […]

Assay [2] concerns naïve CD4+ T cells. In words: Th17 cell in vitro differentiation of naïve CD4+ T cells (flow cytometry of IL-17). The settings on record: sphinganine 5 μM, three days. The format is cell-based, mouse. The protocol:
as §1, with “D: Structures of sphingolipids, as indicated, and sphingolipid biosynthetic pathway are depicted. The numbers in each FACS plot show the percentages of the indicated cell population within the total population of cells shown in the FACS plot.” left out
as §2

In assay [3] the test system is EAE mice. In words: EAE mouse model for multiple sclerosis (MOG35-55 immunization), clinical scoring. The class given is in vivo. The conditions noted are these: C57BL/6 mice, sphinganine 1000 μg/kg body weight intraperitoneally, one injection every two days, day 1 to day 15, FIG. 5. The protocol: EAE induction and monitoring. Each mouse was subcutaneously immunized with 200 μg MOG35-55 peptide emulsified in Freund's Complete Adjuvant. Pertussis toxin (400 ng per mouse) was injected intraperitoneally. Where indicated, mice were intraperitoneally injected with sphinganine (every other day from the day of immunization to the end of the experiments). EAE symptoms were scored every day using the following scoring standard: 0, no sign; 1, limp tail; 2, paraparesis (incomplete paralysis of 1 or 2 hind limbs); 3, paraplegia (complete paralysis of 2 hind limbs); 4, paraplegia with forelimb weakness or paralysis; 5, moribund state or death. For the mouse welfare reason, we sacrificed the mice if the score reached 3. […] C57BL/6 mice were subcutaneously immunized with 200 μg MOG35-55 peptide emulsified in Freund's Complete Adjuvant to induce EAE development. Pertussis toxin (400 ng per mouse) was injected intraperitoneally. Mice were intraperitoneally injected with sphinganine (1000 μg/kg body weight, one injection every two days, from day 1 to day 15). EAE symptoms were scored every day.

Each structure is given as a SMILES string.

Turning to `CCCCCCCCCCCCCCC[C@@H](O)[C@@H](N)CO` [sphinganine], in assay [1] (Treg cell-inducing condition (anti-CD3, anti-CD28, TGFβ, IL-2)), the “Treg cell in vitro generation / Treg cell formation” value is “promoted”. Also, the Foxp3 protein expression entry in assay [1] is given as “increase”; in assay [1] (listed as Sphinganine) it was “further increased”. Moreover, in assay [2] (Th17 cell-differentiation condition: TGFβ 5 ng/ml, IL-6 20 ng/ml, anti-IFNy 10 μg/ml, FIG. 4B), the “IL-17 production / IL-17 protein expression” value is “reduced”. In addition, in assay [2] (TGFβ, IL-6, anti-IFNy), the “inflammatory Th17 cell formation” value is reported as “suppressed”. In addition, the “EAE clinical scores / EAE development” value in assay [3] is reported as “reduced”; in assay [3] (listed as Sphinganine) it was “ameliorated EAE development”.
